This note sets out measurements from patent US11472778B2, “Hepatitis C virus NS3/4A protease inhibitors” (priority 2017, dated 2022).

In general, EC50 refers to the concentration at which the effect is half-maximal.

For series [1] the following is noted: rcm bond, 15-membered ring, Zhan 1b, 1,2-DCE, 70.0 °C.
Series [2] concerns the target T1, GT1a D168A NS3/4A protease (UniProt P27958, C1185S/D1194A, species not given).
T1 construct: Ki (nM) GT1a D168A NS3/4A Protease
It counts as biochemical, Hepatitis C virus. The note with it: read-out: Ki (nM) GT1a D168A NS3/4A Protease. The procedure, abridged: (§1)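 NS3/4A protease (2 nM; wild-type GT1a or D168A) pre-incubated 1 h at room temperature with increasing inhibitor in 50 mM Tris pH 7.5, 5% glycerol, 10 mM DTT, 0.6 mM LDAO, 4% DMSO. Ki from three independent data sets per construct; ΔG=RTlnKi.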

Series [3] has as its target GT1a D168A NS3/4A protease. In kind it is biochemical, Hepatitis C virus. The note with it: Table 3; Ki D168A relative to GT1a WT. The gist of the method: as §1
The target of series [4] is T2, wild-type GT1a NS3/4A protease (UniProt P27958, C1185S, species not given).
T2 construct: Ki (nM) GT1a WT NS3/4A Protease
In kind it is biochemical, Hepatitis C virus. As to conditions: read-out: Ki (nM) GT1a WT NS3/4A Protease. The gist of the method:
as §1

For the next series, the target named is T3, GT3a NS3/4A protease (Hepatitis C virus genotype 3a, UniProt Q81495).
T3 construct: drug-resistant variant D168A, and GT3a NS3/4A protease; made in house; host or cells: Escherichia coli BL21(DE3)
Put plainly: biochemical. As to conditions: for Ki (Fold change) GT3a NS3/4A Protease: Table 3, Ki GT3a relative to GT1a WT. The procedure, abridged: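 Protease at 2 nM pre-incubated 1 h at room temperature with increasing inhibitor concentrations in 50 mM Tris, 5% glycerol, 10 mM DTT, 0.6 mM LDAO, 4% DMSO. Three independent data sets per inhibitor and construct.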

Series [5] deals with wild-type HCV replicon in Huh7 cells. Put plainly: Cell-based drug susceptibility (replicon) assay, wild-type. The note with it: Hepatitis C virus, read-out: Replicon EC50 (nM) WT. The procedure, abridged: (§2)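 Replication is assessed in Huh7 cells electroporated with chimeric replicon RNA (Con1 1b luciferase reporter, H77 1a NS3) under escalating protease inhibitor concentrations, measuring relative light units at 96 h.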
A general note: A replicon is a self-replicating genome or part of one, used to study replication in cells.

Series [6] has as its system HCV replicon A156T variant in Huh7 cells. Put plainly: microbe, parasite or virus in culture. It counts as cell-based, Hepatitis C virus. The note with it: for EC50: Hepatitis C virus; for Replicon EC50 (Fold change) A156T: Table 4, relative to WT replicon. The gist of the method:
as §2

Series [7] deals with HCV replicon D168A variant in Huh7 cells. Description: microbe, parasite or virus in culture. In kind it is cell-based, Hepatitis C virus. The note with it: for EC50: Hepatitis C virus; for Replicon EC50 (Fold change) D168A: Table 4, relative to WT replicon. The procedure, abridged:
as §2

Series [8] has as its system HCV replicon R155K variant in Huh7 cells. Put plainly: microbe, parasite or virus in culture. In kind it is cell-based, Hepatitis C virus. As to conditions: for EC50: Hepatitis C virus; for Replicon EC50 (Fold change) R155K: Table 4, relative to WT replicon. The procedure, abridged: as §2
The test system of series [9] is HCV replicon D168V variant in Huh7 cells. Description: microbe, parasite or virus in culture. In kind it is cell-based, Hepatitis C virus. As to conditions: for EC50: Hepatitis C virus; for Replicon EC50 (Fold change) D168V: Table 4, relative to WT replicon. The gist of the method: as §2
Setting [10] is: Huh-7, 96 h, read-out: Replicon EC50 (nM) A156T, Table 2, Huh7 cells, luciferase 96 h.
[11] abbreviates: Huh-7, read-out: Replicon EC50 (nM) A156T, Table 4.
Setting [12] is: Huh-7, 96 h, read-out: Replicon EC50 (nM) D168A, Table 2, Huh7 cells, luciferase 96 h.
The mark [13] stands for this setting: Huh-7, read-out: Replicon EC50 (nM) D168A, Table 4.
[14] abbreviates: Huh-7, read-out: Replicon EC50 (nM) R155K, Table 4.
Setting [15] is: Huh-7, 96 h, read-out: Replicon EC50 (nM) D168V, Table 2, Huh7 cells, luciferase 96 h.
Where [16] appears, read: Huh-7, read-out: Replicon EC50 (nM) D168V, Table 4.

Where two headings read alike, the source gives them in different places. Where only a bound is given, the exact number is not on record here.

T3 sequence (Q81495 1033-1214): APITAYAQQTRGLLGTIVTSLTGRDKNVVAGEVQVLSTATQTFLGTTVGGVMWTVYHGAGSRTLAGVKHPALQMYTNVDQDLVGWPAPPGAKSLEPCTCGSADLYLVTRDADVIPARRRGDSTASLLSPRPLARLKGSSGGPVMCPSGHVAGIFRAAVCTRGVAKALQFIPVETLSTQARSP

For the molecule `COc1ccc2nc(Cl)c(O[C@@H]3C[C@H]4C(=O)N[C@]5(C(=O)NS(=O)(=O)C6CC6)C[C@H]5/C=C\CCCCC[C@H](NC(=O)OC(C)(C)C)C(=O)N4C3)nc2c1` [Compound 18c, tert-Butyl ((2R,6S,13aS,14aR,16aS,Z)-2-((3-chloro-7-methoxyquinoxalin-2-yl)oxy)-14a-((cyclopropylsulfonyl)carbamoyl)-5,16-dioxo-1,2,3,5,6,7,8,9,10,11,13a,14,14a,15,16,16a-hexadecahydrocyclopropa[e]pyrrolo[1,2-a][1,4]diazacyclopentadecin-6-yl)carbamate], the ring closure, isolated yield in series [1] (6.3 mM) amounted to 50%. In addition, the Ki in [2] (Table 1) is 39.8 nM; in [2] (Table 3), 39.8 ± 3.4 nM; in [4] (Table 1), 1.07 nM; in series [4] (Table 3) it was 1.07 nM; on GT3a NS3/4A protease it was 67.5 nM. In addition, the “Ki (Fold change) GT1a D168A NS3/4A Protease” value in series [3] is “(37) fold”. The “Ki (Fold change) GT3a NS3/4A Protease” value at GT3a NS3/4A protease is “(63) fold”. In addition, the concentration for a half-maximal effect (EC50) in series [5] (Huh-7, Table 4) is 0.16 nM; in series [6] (setting [10]) it was 16.2 nM; in series [6] (setting [11]) it was 16.2 nM; in [7] (setting [12]), below 2 nM; in series [7] (setting [13]), 1.42 nM; in series [8] (setting [14]), 0.44 nM. Further, the EC50 is below 1 nM in [9] (setting [15]) and 0.73 nM in series [9] (setting [16]). For the same molecule, the “Replicon EC50 (Fold change) A156T” value in series [6] is reported as “(101) fold”. The “Replicon EC50 (Fold change) D168A” value in [7] was “(9) fold”. Also, the “Replicon EC50 (Fold change) R155K” value in series [8] is given as “(3) fold”. In series [9], the “Replicon EC50 (Fold change) D168V” value was “(5) fold”.

In turn, `CCc1nc2ccc(OC)cc2nc1O[C@@H]1C[C@H]2C(=O)N[C@]3(C(=O)NS(=O)(=O)C4(C)CC4)C[C@H]3/C=C\CCCCC[C@H](NC(=O)OC(C)(C)C)C(=O)N2C1` [Compound 19a, tert-Butyl ((2R,6S,13aS,14aR,16aS,Z)-2-((3-ethyl-7-methoxyquinoxalin-2-yl)oxy)-14a-(((1-methylcyclopropyl)sulfonyl)carbamoyl)-5,16-dioxo-1,2,3,5,6,7,8,9,10,11,13a,14,14a,15,16,16a-hexadecahydrocyclopropa[e]pyrrolo[1,2-a][1,4]diazacyclopentadecin-6-yl)carbamate] had a ring closure, isolated yield in [1] (from C=CCCCCC[C@H](NC(=O)OC(C)(C)C)C(=O)N1C[C@H](Oc2nc3cc(OC)ccc3nc2CC)C[C@H]1C(=O)N[C@]1(C(=O)NS(=O)(=O)C2(C)CC2)C[C@H]1C=C, 6.0 mM) of 71%. For the same molecule, the Ki in [2] (Table 1) is 55.2 nM; in series [2] (Table 3), 55.2 ± 5.3 nM; in series [4] (Table 1), 1.82 nM; in series [4] (Table 3), 1.82 nM; on GT3a NS3/4A protease, 171 nM. The “Ki (Fold change) GT1a D168A NS3/4A Protease” value in series [3] is “(30) fold”. At GT3a NS3/4A protease, the “Ki (Fold change) GT3a NS3/4A Protease” value is “(94) fold”. Also, the half-maximal effective concentration (EC50) in [5] (Huh-7, 96 h, Table 2, Huh7 cells, luciferase 96 h) is 0.43 nM; in series [5] (Huh-7, Table 4) it was 0.43 nM; in series [6] (setting [10]), 4.52 nM; in series [6] (setting [11]) it was 4.52 nM; in [7] (setting [12]), 4.97 nM; in [7] (setting [13]) it was 4.97 nM. Moreover, the concentration for a half-maximal effect (EC50) in series [8] (Huh-7, 96 h, read-out: Replicon EC50 (nM) R155K, Table 2, Huh7 cells, luciferase 96 h) was 1.8 nM; in series [8] (setting [14]) it was 1.8 nM; in [9] (setting [15]) it was 6.42 nM; in series [9] (setting [16]), 6.42 nM. Moreover, the “Replicon EC50 (Fold change) A156T” value in [6] is given as “(11) fold”. Also, the “Replicon EC50 (Fold change) D168A” value in series [7] is listed as “(12) fold”. The “Replicon EC50 (Fold change) R155K” value in series [8] is given as “(4) fold”. The “Replicon EC50 (Fold change) D168V” value in series [9] is “(15) fold”.

Turning to `COc1ccc2nc(Cl)c(O[C@@H]3C[C@H]4C(=O)N[C@]5(C(=O)NS(=O)(=O)C6(C)CC6)C[C@H]5/C=C\CCCCC[C@H](NC(=O)OC(C)(C)C)C(=O)N4C3)nc2c1` [Compound 19c, tert-Butyl ((2R,6S,13aS,14aR,16aS,Z)-2-((3-chloro-7-methoxyquinoxalin-2-yl)oxy)-14a-(((1-methylcyclopropyl)sulfonyl)carbamoyl)-5,16-dioxo-1,2,3,5,6,7,8,9,10,11,13a,14,14a,15,16,16a-hexadecahydrocyclopropa[e]pyrrolo[1,2-a][1,4]diazacyclopentadecin-6-yl)carbamate], in series [1] (5.0 mM), the ring closure, isolated yield was 86%. Further, the Ki came out at 77.7 nM in series [2] (Table 1); 77.7 ± 6.1 nM in series [2] (Table 3); 1.11 nM in series [4] (Table 1); 1.11 nM in [4] (Table 3); 53.6 nM at GT3a NS3/4A protease. In series [3], the “Ki (Fold change) GT1a D168A NS3/4A Protease” value is “(70) fold”. Further, on GT3a NS3/4A protease, the “Ki (Fold change) GT3a NS3/4A Protease” value is reported as “(48) fold”. Also, the EC50 in series [5] (Huh-7, Table 4) is 0.18 nM; in series [6] (setting [10]) it was 8.86 nM; in series [6] (setting [11]), 8.86 nM; in [7] (setting [12]), below 2 nM; in series [7] (setting [13]), 1.07 nM; in series [8] (setting [14]), 0.4 nM. In [9] (setting [16]), the 50% effective concentration (EC50) is 0.49 nM. Besides, the “Replicon EC50 (Fold change) A156T” value in series [6] is on record as “(49) fold”. The “Replicon EC50 (Fold change) D168A” value in [7] is given as “(6) fold”. Besides, the “Replicon EC50 (Fold change) R155K” value in [8] was “(2) fold”. Further, the “Replicon EC50 (Fold change) D168V” value in series [9] is “(3) fold”.
